For experiment [1], the system named is rat model of focal cerebral ischemia. Conditions: i.p. 10 mg/kg two hours prior to and two hours after initiation of ischemia; cited from earlier work.
The subject of experiment [2] is suture occlusion model of focal ischemia. As to conditions: rat; 10 mg/kg; cited from earlier work.
Experiment [3] concerns mouse MCA occlusion (suture thread method). As to conditions: mice; intracerebroventricular administration; two hour MCA occlusion; cited from earlier work.
The target in experiment [4] is T1, human VEGFR2 cytoplasmic domain (Homo sapiens, UniProt P35968).
T1 construct: recombinant human baculovirus-expressed human VEGFR2 cytoplasmic domain; host or cells: baculovirus-expressed
T1 sequence (P35968 786-1356 limits assumed): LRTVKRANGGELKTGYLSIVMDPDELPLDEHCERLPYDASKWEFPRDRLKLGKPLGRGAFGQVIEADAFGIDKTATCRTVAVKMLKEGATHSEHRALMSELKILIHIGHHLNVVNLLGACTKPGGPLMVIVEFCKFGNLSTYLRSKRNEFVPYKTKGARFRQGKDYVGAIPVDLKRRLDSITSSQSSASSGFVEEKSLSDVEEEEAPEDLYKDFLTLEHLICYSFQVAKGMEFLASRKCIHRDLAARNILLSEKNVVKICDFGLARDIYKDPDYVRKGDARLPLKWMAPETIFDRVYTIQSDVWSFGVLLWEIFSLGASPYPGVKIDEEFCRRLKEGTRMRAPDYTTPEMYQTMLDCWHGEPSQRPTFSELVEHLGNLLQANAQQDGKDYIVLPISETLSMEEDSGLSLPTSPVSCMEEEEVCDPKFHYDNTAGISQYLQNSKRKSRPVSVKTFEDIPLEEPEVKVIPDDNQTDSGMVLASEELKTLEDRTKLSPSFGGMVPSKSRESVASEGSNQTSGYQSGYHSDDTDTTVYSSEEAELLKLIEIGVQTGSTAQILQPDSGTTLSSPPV
Briefly: Measurement of VEGFR2 kinase enzymatic activity (time-resolved fluorescence, PLC-γ/GST substrate). The class given is biochemical. Conditions: Table 5. As to the method: A 96-well FluoroNUNC MaxiSorp plate was coated with 100 μL/well of recombinant human PLC-γ/GST substrate solution at a concentration of 40 μg/mL in Tris-buffered saline (TBS). The VEGFR2 activity was assayed in a 100 μL assay mixture containing 50 mM HEPES (pH 7.4), 30 μM ATP, 10 mM MnCl2, 0.1% BSA, 2% DMSO, and 150 ng/mL recombinant human baculovirus-expressed human VEGFR2 cytoplasmic domain (prephosphorylated for 60 min at 4° C. in the presence of 30 μM ATP and 10 mM MnCl2 prior to use). The kinase reaction was allowed to proceed at 37° C. for 15 min. The europium-labeled anti-phosphotyrosine detection antibody was added at 1:5000 dilution in block buffer (3% BSA in TBST). After 1 hour of incubation at 37° C., 100 μL of enhancement solution (Wallac #1244-105) was added and the plate was gently agitated. After 5 min, the time-resolved fluorescence of the resulting solution was measured using the BMG PolarStar (Model #403) using excitation and emission wavelengths of 340 nm and 615 nm, respectively, a collection delay of 400 μsec and an integration time of 400 μsec.
(§1) Single-point inhibition data were calculated by comparing PARP, VEGFR2, or MLK3 activity in the presence of inhibitor to activity in the presence of DMSO only. Inhibition curves for compounds were generated by plotting percent inhibition versus log10 of the concentration of compound. IC50 values were calculated by nonlinear regression using the sigmoidal dose-response (variable slope) equation in GraphPad Prism as follows: y=bottom+(top−bottom)/(1+10^(log IC50^−x)*Hillslope) where y is the % activity at a given concentration of compound, x is the logarithm of the concentration of compound, bottom is the % inhibition at the lowest compound concentration tested, and top is the % inhibition at the highest compound concentration examined. The values for bottom and top were fixed at 0 and 100, respectively. IC50 values were reported as the average of at least three separate determinations.
The following Examples 5 to 10 present PARP, VEGFR2, and MLK3 inhibiting data for compounds of the present invention. […] For some compounds, inhibiting data is presented as percent inhibition at a specified concentration. Compounds are tabulated together with compound number, substituents, and enzyme inhibition data.

Experiment [5] deals with T2, MLK3 (Homo sapiens, UniProt Q16584).
T2 construct: 2 μg/mL of baculoviral human GST-MLK1 kinase domain; GST (N); host or cells: baculovirus expression
T2 sequence (Q16584 117-379 limits assumed): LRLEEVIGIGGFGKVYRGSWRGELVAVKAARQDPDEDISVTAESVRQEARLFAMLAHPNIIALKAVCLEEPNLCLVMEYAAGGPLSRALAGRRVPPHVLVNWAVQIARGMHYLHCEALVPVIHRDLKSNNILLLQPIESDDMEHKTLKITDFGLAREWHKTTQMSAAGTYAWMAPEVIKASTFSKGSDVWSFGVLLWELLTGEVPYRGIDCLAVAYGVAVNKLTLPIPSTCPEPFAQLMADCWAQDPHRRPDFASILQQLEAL
Briefly: Measurement of MLK3 enzymatic activity (32P phosphorylation of myelin basic protein). The class given is biochemical. Conditions: percent inhibition at 1 μM; Table 5. As to the method:
The activity assay for MLK3 was performed in Millipore Multiscreen plates. Each 50 μL assay mixture contained 50 mM HEPES (pH 7.0), 1 mM EGTA, 10 mM MgCl2, 1 mM DTT, 25 mM β-glycerophosphate, 100 μM ATP, 1 μCi [γ-^32P]ATP, 0.1% BSA, 500 μg/mL myelin basic protein, 2% DMSO, various concentrations of test compounds, and 2 μg/mL of baculoviral human GST-MLK1 kinase domain. Samples were incubated for 15 min at 37° C. The reaction was stopped by adding ice-cold 50% TCA and the proteins were allowed to precipitate for 30 min at 4° C.
as §1
For some compounds, inhibiting data is presented as percent inhibition at a specified concentration. Compounds are tabulated together with compound number, substituents, and enzyme inhibition data.

Regarding `O=C1NCCc2c(OCCCCN3CCCCC3)cccc21` [DPQ, 3,4-dihydro-5-[4-(1-piperidinyl)butoxy]-1(2H)-isoquinolinone], the “reduction in infarct volume” value in experiment [1] is 54%.
As for `NC(=O)c1cccc(N)c1` [Compound 3-AB, 3-aminobenzamide], the infarct volume entry in experiment [2] is “significantly reduced”. For the same compound, the “decrease in infarct volume” value in experiment [3] is 47%.
In general, IC50 refers to the concentration that gives 50% inhibition. A higher IC50 goes with weaker potency in that assay. The compound `O=C1NC(=O)c2c1c1ccccc1c1[nH]c3ccccc3c21` [Compound 11e] yielded an IC50 in experiment [4] of 166 nM. The “MLK3 % @ 1 μM” value in experiment [5] came to 35%.
On to `O=C1NC(=O)c2c1c1c(c3[nH]c4ccccc4c23)CCO1` [Compound 11f, 5,7,10,11-Tetrahydrofuran[a-3,2]pyrrolo[3,4-c]carbazole-5(6H), 7(9H)-dione], for which, in experiment [4] (percent inhibition at 300 nM), the “VEGFR2 % @ 300 nM” value came to 3%. The “MLK3 % @ 1 μM” value in experiment [5] is 62%.

(Values after patent US8716493B2, “Multicyclic compounds and the use thereof” (Cephalon, Inc., priority 2000, dated 2014).)
